In patent US20260265179A1, “PHOTOSWITCHABLE COMPOUNDS AND AFFINITY LIGANDS, AND THEIR USE FOR THE OPTICAL CONTROL OF AFFINITY MATRICES” (AFC Innovations GmbH, priority 2023, published 2026):
One block for each molecule: values may come before it.

Legend:
[1] = Stability of photoswitch in presence of TCEP during derivatization reaction; assay type: physicochemical; conditions: 1 mM TCEP, pH 8.5, 35° C., 16 h
Experimental: Freshly degassed and reduced SpA #2 (650 μM, 1.3 μmol, 10 mg, 1 eq) in a total volume of 2 ml was diluted with the same degassed buffer (100 mM sodium borate, 150 mM NaCl, 1 mM TCEP, pH 8.5) to a final protein concentration of 50 μM. This solution was stirred under nitrogen atmosphere while 2.2 mg PS2 (2.6 μmol, 2 eq) dissolved in 0.26 ml DMF, which has been illuminated with red light (635 nm) for 5 min, was added in one portion. The reaction was illuminated with red light and stirred for 16 h at 35° C. […] The derivatization reaction results in a […] amount of intramolecular cross-linked species. Further purification steps by anion exchange chromatography and SEC were performed to remove small amounts of cross-linked species and higher oligomers.

[2] = Thermal cis to trans relaxation of PS4, HPLC; assay type: physicochemical; conditions: 25° C., kept in the dark after yellow light (593 nm) for 2 min
[3] = system: immunoglobulin G (IgG) mixture (Cutaquig); assay: Light-controlled affinity purification of IgG from polyclonal antibody mixture Cutaquig; assay type: binding; conditions: sample application and washing under red light, elution under blue light; immobilized on NHS-Agarose
Experimental: For the functional assessment of the light-switchable affinity matrices, these were encased within a transparent acrylic glass housing, featuring a thickness of 2 mm, to achieve a settled bed volume (SBV) of 250 μl. A LED array equipped with lenses capable of alternating between peak wavelengths of 635 nm (red) and 465 nm (blue) was positioned adjacent to the housing. This configuration ensured thorough and efficient illumination of the entire resin material contained within. The performance of the light-switchable affinity matrix was tested using the polyclonal antibody mixture Cutaquig® (Octapharma) as a substrate.
Initially, the column was equilibrated with 3 mL of running buffer (50 mM TrisHCl, pH 7.6, 150 mM NaCl) using an FPLC system (AKTA Pure 25, Cytiva Life Science). The affinity matrix was then loaded with sample to achieve a 60% breakthrough. Unbound proteins and impurities were removed by washing the column with 7.5 mL of the same running buffer. Both, the sample application and washing steps were performed under red visible light illumination at 635 nm to ensure binding conditions. Following this, the elution of bound immunoglobulin G (IgG) was initiated by switching the illumination to blue visible light at 465 nm, which induces the release of the bound IgG. The resin was regenerated by again illuminating with red visible light at 635 nm, preparing it for subsequent use. […]

B1: Ps2-SpG #1: Protein G variant SpG #1 (SEQ ID NO. 18) modified with photoswitch PS2 (conjugate)
chain: MATKASKGGGGTTYRLILNGVTLSGETTTEACDAATAERVFRQYANDYGVDGEWTYDCATRTFTVTEGEDEDEDED
modifications: photoswitch PS2
binding and light-controlled elution of IgG (chromatogram) [3]: elution of specifically bound IgG molecules is initiated by blue light illumination

B2: Ps2-Ppl #1: Protein L variant PpL #1 (SEQ ID NO. 19) modified with photoswitch PS2 (conjugate)
chain: MATKASKGGGGASEEVTIRVNLIFADGSTQCAEFRGTFEEATAEAYAYADLLARENGEYTACLEDGGNTINIRFAGEDEDEDED
modifications: photoswitch PS2
binding and light-controlled elution of IgG (chromatogram) [3]: elution of specifically bound IgG molecules is initiated by blue light illumination

More lines, now with the values ahead:

stability in the presence of TCEP [1]: stable
Molecule: COc1cc(-c2ccc(NC(=O)CCl)c(C(=O)NCC(=O)O)c2)cc(OC)c1/N=N/c1c(OC)cc(-c2ccc(NC(=O)CCl)c(C(=O)NCC(=O)O)c2)cc1OC [PS2, 4′-(2-(4-(2-chloroacetamido)-3′,5′-dimethoxybiphenyl-3-ylcarboxyamido)acetic acid)-4′-(2-(4-(2-chloroacetamido)-3′,5′-dimethoxybiphenyl-3-ylcarboxyamido)acetic acid)diazene]

t1/2 (cis→trans) [2]: ≥ 24 h
Molecule: O=C(O)CNC(=O)c1cc(-c2cc(F)c(/N=N/c3c(F)cc(-c4ccc(NC(=O)CCl)c(C(=O)NCC(=O)O)c4)cc3F)c(F)c2)ccc1NC(=O)CCl [PS4, 4′-(2-(4-(2-chloroacetamido)-3′,5′-difluorobiphenyl-3-ylcarboxyamido)acetic acid)-4′-(2-(4-(2-chloroacetamido)-3′,5′-difluorobiphenyl-3-ylcarboxyamido)acetic acid)diazene]
